From PMC7215373, “Design, Synthesis, and Anticancer Evaluation of Novel Indole Derivatives of Ursolic Acid as Potential Topoisomerase II Inhibitors” (International Journal of Molecular Sciences, 2020)

Assays:
Assay type in all cases: cell-based, human
SMMC-7721 cells [1] = test: JC-1 mitochondrial membrane potential assay; conditions: 24 h, control 1.29%
Description: It has been widely believed that intracellular ROS accumulation could decrease mitochondrial membrane potential (ΔΨm), which is a characteristic phenomenon of early apoptosis. To investigate the correlation between ΔΨm and apoptosis induced by compound 5f, the measurement of cells with decreased ΔΨm were carried out by JC-1 assay kit on the instructions of the manual.
The JC-1 mitochondrial membrane potential assay kit (Keygene Biotech., Nanjing, China) was employed to measure mitochondrial depolarization in SMMC-7721 cells. The fluorescence probe JC-1 was used to detect the change of mitochondrial membrane potential. Briefly, cells cultured in six-well plates after indicated treatments by compound 5f were incubated with an equal volume of JC-1 staining solution (5 μg/mL) at 37 °C for 20 min and rinsed twice with PBS. Mitochondrial membrane potentials were monitored by determining the relative amounts of dual emissions from mitochondrial JC-1 monomers or aggregates using flow cytometry (Becton-Dickinson FACSCalibur, Franklin Lakes, NJ, USA). Mitochondrial membrane depolarization is indicated by an increase in the percentage of cells with low ΔΨm (green fluorescence, lower right quadrant) compared with cells with high ΔΨm (red fluorescence, upper right quadrant).

SMMC-7721 cells [2] = test: AO/EB double staining assay; conditions: 0.3, 0.6 and 1.2 μM, 48 h
Description: Apoptosis induced by compound 5f was further evaluated using acridine orange / ethidium bromide (AO/EB) double staining. AO, as a vital dye showing green fluorescence, can pass through cell membrane of living or dead cells, while EB only stains apoptotic or necrotic cells that have lost their integrity and appear red fluorescence. Therefore, the normal cells will be stained only by AO with bright green while apoptotic cells will be stained by AO and EB with red-orange [26, 27].
SMMC-7721 cells were seeded into six-well plates and incubated at 37 °C with 5% CO2 for 24 h. Then, the cells were exposed to different concentrations of compound 5f (0, 0.3, 0.6, and 1.2 μM) for 48 h. After that, 10 μL of each fluorescent dye cantaining AO and EB (10 μg/mL) were added to each well in equal volumes respectively and incubated for 5 min in the dark. The cells were visualized through an inverted fluorescence microscope (Olympus 1X71 Inverted System Microscope, Olympus, Tokyo, Japan).

SMMC-7721 cells [3] = test: Annexin V-FITC/PI staining apoptosis assay by flow cytometry; conditions: 48 h, control 4.41%
Description: To further investigate the role of apoptosis in the antitumor activity of compound 5f, SMMC-7721 cells were treated with different concentrations of compound 5f (0, 0.3, 0.6, and 1.2 μM) for 48 h. Then the treated cells were stained with Annexin V-FITC/PI followed by flow cytometry analysis.
The extent of apoptosis was quantitatively measured using Annexin V-FITC/PI dual staining assay. SMMC-7721 cells were seeded into a six-well plate at 5 × 10^5 cells per well in 10% fetal calf serum (FBS)-DMEM into six-well plates and treated with different concentrations of the indicated compound 5f for 48 h. The cells were detached with 0.25% trypsin, washed with ice-cold PBS for twice and then resuspended in 1 × Binding buffer (0.1 M Hepes/NaOH (pH 7.4), 1.4 M NaCl, 25 mM CaCl2). The cells were stained with 5 μL of Annexin V-FITC and 5 μL of PI ([…]) to each tube. The cells were gently vortexed and incubated in the dark at room temperature for 15 min and then kept at 4 °C. The samples were analyzed by a flow cytometer (Becton-Dickinson FACSCalibur, Franklin Lakes, NJ, USA), and data were analyzed using the FlowJo software (Becton-Dickinson Biosciences, Franklin Lakes, NJ, USA).

SMMC-7721 cells [4] = test: MTT cytotoxicity assay, SMMC-7721; conditions: 48 h exposure
Outline: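 Cells in DMEM with 10% FBS were seeded and allowed to attach for 24 h. They were then exposed to compound dilutions for 48 h at 37 °C, 5% CO2. Viability was measured by MTT (4 h), with formazan dissolved in DMSO and read at 570 nm.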

Cc1ccc2[nH]c3c(c2c1)C[C@@]1(C)C(CC[C@]2(C)C1CC=C1C4[C@@H](C)[C@H](C)CC[C@]4(C(=O)NCCCN4CCN(C)CC4)CC[C@]12C)C3(C)C (stereo partly drawn) [5f, N-(3-(4-Methylpiperazin-1-yl)propyl)-5′-methyl-1′H-ursa-2,12-dieno[3,2-b]indol-28-carboxamide]
percentage of cells with low ΔΨm (SMMC-7721 cells [1]; 0.3 μM): 7.43% | percentage of cells with low ΔΨm (SMMC-7721 cells [1]; 0.6 μM): 16.28% | percentage of cells with low ΔΨm (SMMC-7721 cells [1]; 1.2 μM): 32.34% | apoptosis by AO/EB staining (fluorescence microscopy) (SMMC-7721 cells [2]): induced apoptosis | percentage of early and late apoptotic cells (SMMC-7721 cells [3]; 0.3 μM): 9.13% | percentage of early and late apoptotic cells (SMMC-7721 cells [3]; 0.6 μM): 21.36% | percentage of early and late apoptotic cells (SMMC-7721 cells [3]; 1.2 μM): 30.33% | IC50 (SMMC-7721 cells [4]): 0.56 ± 0.08 µM | IC50 (SMMC-7721 cells [4]; Homo sapiens, SMMC-7721, 48 h): ~1 µM
